Test results taken from publication PMC8850458, “The AUTOTAC chemical biology platform for targeted protein degradation via the autophagy-lysosome system” (Nature Communications, 2022).
“And” between values parts separate entries of the source, which are not always exact repeats. Identical values can stand only once.

Key:
[1] = test system: p62 and the lysosomal marker LAMP1; assay: ICC of LAMP1-p62 co-localization in HeLa cells; assay type: cell-based; settings: 2.5 μM, 24 h
Method: Cells were cultured on coverslips coated with poly-L-lysine (Sigma) to observe cellular localization of proteins. Using 4% paraformaldehyde in PBS (pH 7.4), the cells were fixed for 15 min at room temperature and washed three times for 5 min with PBS. After fixing, the cells were permeabilized with 0.5% Triton X-100 in PBS solution for 15 min and washed three times with PBS for 5 min. The cells were blocked containing 2% BSA in PBS solution for 1 h at room temperature. Subsequently, the cells were incubated with primary antibody diluted in 2% BSA/PBS solution overnight at 4 °C, followed by washing the cells three times for 10 min with PBS and incubated with Alexa Fluor-conjugated secondary antibody diluted in 2% BSA/PBS for 30 min at room temperature. Using a DAPI-containing mounting medium (Vector Laboratories), the coverslips were mounted on glass slides. Confocal images were taken by laser scanning confocal microscope 510 Meta (Zeiss) and analyzed by Zeiss LSM Image Browser (ver. 4.2.0.121). […] Quantification results are shown as mean ± S.D. or S.E.M. of three independent experiments […]
Supplementary Fig. 2. Characterization of p62-ZZ ligands (a, c, e) 3-D modeling of p62 ZZ ligands YOK-1304, YOK-2204 and YTK-105, respectively. (b, d, f) 2-D diagram for YOK-1304, YOK-2204 and YTK-105, respectively. (g,h) ICC of HeLa cells treated with the indicated compounds (2.5 μM, 24 h). Scale bar, 10 μm. (i) Quantification of h for co-localization (n=3, 50 cells). (j) ICC of HeLa cells treated with the indicated compounds (2.5 μM, 24 h). Scale bar, 10 μm. (k) Quantification of j for co-localization (n=3, 50 cells). (l) ICC of HeLa cells transiently expressing WIPI2-GFP and treated with the indicated compounds (2.5 μM, 6 h). (m) Quantification of l for co-localization (n=3, 50 cells). Scale bar, 10 µm. (n) […]

[2] = molecular target: T1, p62 (Homo sapiens, UniProt Q13501); assay: In vitro pulldown assay with biotinylated p62 ligands; assay type: binding; settings: biotinylated ligand, HEK293T extracts
T1 construct: expressed in transfected cells; host or cells: HEK293T, transient; whole lysate used
Method: A set of synthetic 12-mer peptides corresponding to the N-terminal sequences of the V-BiP (V[19]-[…]-biotin) and V-RGS4 (V^2-[…]-biotin) was C-terminally biotin-conjugated. Alternatively, biotinylated versions of YOK-1304, YT-8-8, YTK-1105, YOK-2204, and PBA were synthesized. To cross-link the above peptides with resin beads, biotin-conjugated peptides, and small molecule were mixed with high-capacity streptavidin agarose resin (Thermo Fisher Scientific) at a ratio of 0.5 mg of peptide per 1 mL of settled resin and incubated on a rotator at 4 °C overnight. After washing five times with PBS, the peptide/small molecule-bead conjugates were diluted with PBS at a 1:1 ratio. To prepare protein extracts, cells were collected by centrifugation and lysed by freezing and thawing at least 10 times in hypotonic buffer [10 mM KCl, 1.5 mM MgCl2, and 10 mM HEPES (pH 7.9)] with a protease inhibitor mix (Sigma). After centrifugation at 15,000 rpm 4 °C for 15 min, proteins were quantified using a BCA protein assay kit (Thermo Fisher Scientific). Total protein (200 μg) diluted in 300 μL of binding buffer [0.05% Tween-20, 10% glycerol, 0.2 M KCl, and 20 mM HEPES (pH 7.9)] were mixed with 50 μL of peptide/small molecule-bead resin and incubated at 4 °C for 2 h on a rotator. The protein-bound beads were collected by centrifugation at 2400 × g for 3 min and washed five times with binding buffer. The beads were resuspended in 25 μL of SDS sample buffer, heated at 95 °C for 5 min, and subjected to SDS/PAGE and immunoblotting.

[3] = test system: p62-positive and WIPI2-positive punctate structures; assay: ICC of WIPI2-p62 co-localization in HeLa cells; assay type: cell-based; settings: HeLa, endogenous WIPI2, 2.5 μM, 24 h
Method: Cells were cultured on coverslips coated with poly-L-lysine (Sigma) to observe cellular localization of proteins. Using 4% paraformaldehyde in PBS (pH 7.4), the cells were fixed for 15 min at room temperature and washed three times for 5 min with PBS. After fixing, the cells were permeabilized with 0.5% Triton X-100 in PBS solution for 15 min and washed three times with PBS for 5 min. The cells were blocked containing 2% BSA in PBS solution for 1 h at room temperature. Subsequently, the cells were incubated with primary antibody diluted in 2% BSA/PBS solution overnight at 4 °C, followed by washing the cells three times for 10 min with PBS and incubated with Alexa Fluor-conjugated secondary antibody diluted in 2% BSA/PBS for 30 min at room temperature. Using a DAPI-containing mounting medium (Vector Laboratories), the coverslips were mounted on glass slides. Confocal images were taken by laser scanning confocal microscope 510 Meta (Zeiss) and analyzed by Zeiss LSM Image Browser (ver. 4.2.0.121). […] Quantification results are shown as mean ± S.D. or S.E.M. of three independent experiments
Supplementary Fig. 2. Characterization of p62-ZZ ligands (a, c, e) 3-D modeling of p62 […]
μM, 6 h). (m) Quantification of l for co-localization (n=3, 50 cells). Scale bar, 10 µm. (n) […]

[4] = molecular target: T2, wild-type desmin (Homo sapiens, UniProt P17661); assay: WB degradation of wild-type desmin in HeLa cells; assay type: cell-based; settings: exogenously expressed
T2 construct: expressed in transfected cells; host or cells: HeLa, transient
Method: (§1) Adherent cells were washed with phosphate-buffered saline (PBS) and cell pellets were lysed in SDS-based sample buffer (277.8 mM Tris-HCI, pH 6.8, 4.4% LDS, 44.4% (v/v) glycerol) containing beta-mercaptoethanol. Alternatively, cell pellets or protein supernatants were lysed in 5X Laemmli sample buffer. Whole-cell lysates were separated using SDS-PAGE, and transferred onto polyvinyllidene difluoride membranes at 100 V for 2 h at 4 °C. The membrane was incubated with a blocking solution consisting 4% skim milk in PBS solution for 30 min at room temperature and incubated with primary antibodies overnight, followed by incubation with host-specific HRP-conjugated secondary antibodies (1:10000 dilution). For signal detection, the membrane was developed with a mixture of ECL solution (Thermo Fisher Scientific) using X-ray films. Densitometry of developed bands was measured and analyzed with ImageJ (NIH, Bethesda).
(§2) Supplementary Fig. 5. AUTOTACs selectively target pathological aggregation-prone proteins for autophagic degradation. (a) WB in HEK293T cells treated with PBA-1105 (1 μM) and MG132 (1 μM, 24 h) at the indicated time points. (b) ICC of HeLa cells treated with the indicated compounds (1 μM, 24 h). Scale bar, 10 μm. (c) WB in HEK293T cells treated with PBA-1105 (500 nM, 24 h) and MG132 (1 μM, 24 h) under siRNA-mediated knockdown of p62 or ATG7 (20 nM, 48 h). (d) ICC in HeLa cells transiently expressing WIPI2-GFP and treated with Anle138b-F105 (1 μM, 24 h). Scale bar, 10 μm. (e) ICC in HeLa cells treated with […]
(§3) nM, 24 h). (g, h) WB in HeLa cells transiently expressing wild type or mutant (L385P) desmin-flag with LacZ-myc and treated with PBA-1105, PBA-1105b or Anle138b-F105 at the […]

[5] = molecular target: T3, mutant desminL385P (Homo sapiens, UniProt P17661, L385P); assay: WB degradation of mutant desmin in HeLa cells; assay type: cell-based; settings: exogenously expressed
T3 construct: expressed in transfected cells; host or cells: HeLa, transient
Method: as §1, §2, §3

[6] = molecular target: tauP301L (Homo sapiens, UniProt P10636, P618L); assay: WB degradation of tauP301L in SH-SY5Y-tauP301L cells; assay type: cell-based; settings: SH-SY5Y-tauP301L cells
In short: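 Lysates in SDS/LDS or Laemmli sample buffer were separated by SDS-PAGE and blotted to PVDF. Target protein was detected with primary antibodies, HRP secondary and ECL on X-ray film, and degradation quantified by band densitometry.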

T1 sequence (Q13501 whole entry): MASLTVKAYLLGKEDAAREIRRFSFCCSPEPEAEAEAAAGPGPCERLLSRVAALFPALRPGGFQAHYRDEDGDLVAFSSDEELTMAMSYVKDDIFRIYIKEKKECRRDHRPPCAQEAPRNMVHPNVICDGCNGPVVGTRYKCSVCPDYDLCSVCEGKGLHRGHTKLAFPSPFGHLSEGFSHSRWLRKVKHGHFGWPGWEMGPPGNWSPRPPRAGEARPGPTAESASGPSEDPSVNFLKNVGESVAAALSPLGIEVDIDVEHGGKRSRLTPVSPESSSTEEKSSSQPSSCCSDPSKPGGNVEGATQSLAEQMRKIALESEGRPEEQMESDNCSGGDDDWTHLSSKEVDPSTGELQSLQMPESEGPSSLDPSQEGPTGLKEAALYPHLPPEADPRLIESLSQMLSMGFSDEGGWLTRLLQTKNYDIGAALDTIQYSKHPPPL
T2 sequence (P17661 whole entry): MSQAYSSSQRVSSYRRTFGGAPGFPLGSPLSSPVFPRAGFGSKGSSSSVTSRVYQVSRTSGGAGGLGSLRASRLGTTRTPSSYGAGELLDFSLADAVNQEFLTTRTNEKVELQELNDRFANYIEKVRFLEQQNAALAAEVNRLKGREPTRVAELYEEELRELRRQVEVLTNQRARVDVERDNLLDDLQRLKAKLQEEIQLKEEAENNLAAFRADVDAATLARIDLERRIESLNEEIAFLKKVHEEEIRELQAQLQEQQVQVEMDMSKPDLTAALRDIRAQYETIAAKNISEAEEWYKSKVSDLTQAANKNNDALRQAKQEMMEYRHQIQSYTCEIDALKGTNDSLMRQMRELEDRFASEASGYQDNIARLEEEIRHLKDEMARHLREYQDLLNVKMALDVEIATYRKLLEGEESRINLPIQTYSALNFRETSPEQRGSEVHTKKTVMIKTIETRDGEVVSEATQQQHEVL
Sequence of tauP301L (P10636 1-441 isoform P10636-8 P301L): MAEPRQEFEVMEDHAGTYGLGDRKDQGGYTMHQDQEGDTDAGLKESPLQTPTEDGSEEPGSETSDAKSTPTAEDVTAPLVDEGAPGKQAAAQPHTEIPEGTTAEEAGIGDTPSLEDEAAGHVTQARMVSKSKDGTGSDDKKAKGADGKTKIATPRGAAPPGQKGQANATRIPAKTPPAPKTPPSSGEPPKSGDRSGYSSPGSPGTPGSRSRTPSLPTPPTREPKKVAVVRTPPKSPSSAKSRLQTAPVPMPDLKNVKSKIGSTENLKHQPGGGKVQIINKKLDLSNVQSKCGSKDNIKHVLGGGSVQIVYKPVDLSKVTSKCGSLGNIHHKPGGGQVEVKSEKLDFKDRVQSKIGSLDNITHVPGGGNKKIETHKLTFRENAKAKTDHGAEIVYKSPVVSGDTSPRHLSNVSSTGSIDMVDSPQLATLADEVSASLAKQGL
T3 sequence (P17661 whole entry L385P): as the sequence (P17661 whole entry) above, with L385P counted along it

**Q.** `OCCNCCNCc1cccc(OCc2ccc(F)cc2)c1` [YT-8-8] was tested. Which “LAMP1-p62 colocalization, AVG of cells of 50” value [1] did it give?
**A.** 33

**Q.** What about the “LAMP1-p62 colocalization, percentage AVG” value [1] of the same compound?
**A.** 66%

**Q.** What about the “LAMP1-p62 colocalization, cells of 50 cells counted” value ([1]; single experiments) of the same compound?
**A.** 32 and 38 and 29

**Q.** And the “binding of p62 in pulldown” value [2]?
**A.** bound

**Q.** What about the “WIPI2-p62 colocalization, AVG of cells of 50” value [3] of the same compound?
**A.** 43.3333

**Q.** What about the “WIPI2-p62 colocalization, percentage AVG” value [3] of the same compound?
**A.** 86.6667%

**Q.** And the “WIPI2-p62 colocalization, cells of 50 cells counted” value ([3]; single experiments)?
**A.** 42 and 39 and 49

**Q.** Which “degradation of wild-type desmin” value [4] does the source give for `O=C(CCCc1ccccc1)NCCOCCOCCOCCOCCOCCOCCOCCNCc1ccc(OCc2ccccc2)c(OCc2ccccc2)c1` [PBA-1105b] here?
**A.** not wild-type desmin

**Q.** What about the “degradation of mutant desminL385P” value [5] of the same compound?
**A.** induced the degradation

**Q.** And the “degradation of tauP301L” value [6]?
**A.** at a similar efficiency as the original PBA-1105
